Source: PMC3001719, “The heme sensing response regulator HssR in Staphylococcus aureus but not the homologous RR23 in Listeria monocytogenes modulates susceptibility to the antimicrobial peptide plectasin” (BMC Microbiology, 2010)

How the values were obtained:
[1] = test system: S. aureus 8325-4 hssR::bursa/pRMC2-hssRS (complementation of hssR transposon mutant); assay: MIC, microbroth dilution; assay type: cell-based, Staphylococcus aureus; conditions: 8325-4 hssR::bursa/pRMC2-hssRS compared to 8325-4 hssR::bursa, MIC
Procedure: Protamine was purchased from Sigma (P4020-5G). Plectasin, eurocin, novicidin, and novispirin G10 were supplied by Department of Antiinfective Discovery, Novozymes A/S. The host defence peptides were dissolved in 0.01% acetic acid/0.1% bovine serum albumin (Sigma, A7906).
Minimal inhibitory concentrations (MIC) of plectasin, eurocin, protamine, novicidin, and novispirin G10 were determined using a microbroth dilution method. Colonies from a BHI plate incubated overnight at 37 °C were suspended in MHB pH 7.4 to an absorbance at 546 nm of 0.11-0.12 at 546 nm (approx. 1.0 × 10^8 CFU/ml) and diluted in MHB to a concentration of 5.0 × 10^5 CFU/ml. Ninety μl of bacterial suspension was incubated with 10 μl of peptide solution in polypropylene 96-well plates (Nunc, 442587) for 18-24 h at 37°C. The peptide solutions were made fresh on the day of assay. The range of concentrations assayed were 0.25-256 μg/ml for plectasin and eurocin, 0.125-128 μg/ml for protamine and novispirin G10, and 0.031-32 μg/ml for novicidin. MIC was the lowest peptide concentration at which visual growth was inhibited.

S. aureus = assay: ATP leakage (intracellular and extracellular ATP, bioluminescence); assay type: cell-based, Staphylococcus aureus; conditions: S. aureus, 500 μg/ml peptide, 50 mM HEPES pH 7.0 with 0.2% glucose, vs peptide dilution buffer; two independent experiments
Procedure: L. monocytogenes and S. aureus were grown in TSB at 37°C. Bacteria were harvested (10 min at 3000 RPM) at mid-exponential phase (absorbance at 546 nm of 2.5 ± 0.2 and 1.0 ± 0.2 for S. aureus and L. monocytogenes, respectively), washed once in 50 mM potassium phosphate buffer pH 7.0 and once in 50 mM HEPES buffer pH 7.0. The pellet was resuspended in 50 mM HEPES pH 7.0 to a final absorbance at 546 nm of 10. Bacteria were stored on ice and used within 5 hours. […] ATP was determined using a bioluminescence kit (Sigma, FLAA-1KT) and a BioOrbit 1253 luminometer. Total ATP content was determined by rapidly permeabilising 20 μl cell suspension with 80 μl dimethyl sulfoxide. The cell suspension was diluted in 4.9 ml sterile water, and ATP content was determined in 100 μl of the preparation as described by the manufacturer. To determine the extracellular ATP concentration, the 20 μl cell suspension was mixed with 80 μl sterile water and analyzed as described above. Intracellular ATP concentrations were calculated by using the intracellular volumes of 0.85 and 1.7 μm^3 for S. aureus and L. monocytogenes, respectively. The number of cells in suspension was determined by plate spreading.

[2] = test system: plasmid DNA (pBluescript II SK+); assay: DNA-binding analysis by in vitro gel retardation; conditions: 100 ng plasmid DNA with increasing amounts of peptide, 1 h at room temperature, data not shown
Procedure: Gel retardation analysis were performed as described by Nan et al by mixing 100 ng of plasmid DNA (pBluescript II SK^+(Stratagene)) with increasing amounts of peptide in 20 μl binding buffer (5% glycerol, 10 mM Tris, 1 mM EDTA, 1 mM dithiothreitol, 20 mM KCL and 50 μg ml^-1 bovine serum albumin). Reaction mixtures were incubated 1 h at room temperature and subjected to 1% agarose gel electrophoresis and visualised using ethidium bromide.

L. monocytogenes = assay: Extracellular protein profile by SDS-PAGE; assay type: cell-based, Listeria monocytogenes; conditions: L. monocytogenes grown with or without plectasin overnight at 37°C in BHI; data not shown
Procedure: Prewarmed TSB and BHI (25 ml) in a 250 ml Erlenmeyer flask was inoculated with S. aureus strains and L. monocytogenes strains, respectively. These flasks were grown with and without plectasin at 37°C overnight (≈ 17 h) with shaking. The next morning, the exact absorbance at 600 nm of the cultures was measured, and 15 ml of culture was centrifuged to precipitate the cells (6 000 RPM; 7 min; 0°C). The supernatant was transferred to a 50 ml Blue cap bottle (placed in an ice/water bath), and the extracellular proteins were precipitated by adding one volume of ice-cold 96% EtOH and left in the refrigerator overnight for proteins to precipitate. Precipitated proteins were collected by centrifugation (11,000 RPM; 30 min; 0°C). Protein pellets were suspended in a volume of 50 mM Tris-HCl (pH 6.8) adjusted to the original absorbance of the overnight culture so that 15 ml of overnight culture with absorbance at 600 nm of 5.0 was suspended in 0.8 ml of 50 mM Tris-HCl (pH 6.8). A sample of 15 μl of the protein extracts was analysed on NuPAGE® 4-12% Bis-Tris gels (Invitrogen) using the X Cell SureLock® Mini-Cell system (Invitrogen) as recommended by the supplier. The gels were Coomassie stained using GelCode® Blue Stain Reagent (Pierce).

S. aureus wild type = assay: Spontaneous mutation control on plectasin plates; assay type: cell-based, Staphylococcus aureus; conditions: S. aureus wild type grown on TSB with 4, 5 or 10 fold MIC of plectasin
Procedure: The transposon mutant libraries were screened on agar plates for increased resistance to plectasin as compared to wild-type sensitivity. Wild-type sensitivity was determined by plating approx. 1.0 × 10^7 CFU/ml on TSB agar containing plectasin (S. aureus) and approx. 1.0 × 10^5 CFU/ml on Muller Hinton Broth agar plates (MHB, 212322 Becton Dickinson) with plectasin (L. monocytogenes). Plates were incubated at 37°C for 3 days and inspected for growth. The transposon libraries were screened on TSB agar with 300 μg/ml, 500 or 750 μg/ml plectasin (S. aureus) or MHB plates with 250 μg/ml or 500 μg/ml plectasin (L. monocytogenes) at 37°C for up to 7 days.

[3] = test system: mice, human keratinocytes and erythrocytes; conditions: in mice and on human keratinocytes and erythrocytes; cited from earlier work
Excerpt: Recently, the antimicrobial peptide, plectasin isolated from a saprophytic fungus, was described.

CC[C@H](C)[C@@H]1NC(=O)[C@H](CO)NC(=O)[C@H](CCCCN)NC(=O)[C@@H]2CSSC[C@@H](C(=O)N[C@@H](Cc3ccc(O)cc3)C(=O)O)NC(=O)[C@H](CCCCN)NC(=O)[C@@H]3CSSC[C@H](NC(=O)[C@H](CCC(N)=O)NC(=O)[C@H](CCSC)NC(=O)[C@H](CC(=O)O)NC(=O)[C@H](CC(=O)O)NC(=O)[C@H](CCC(=O)O)NC(=O)[C@H](CC(=O)O)NC(=O)[C@H](Cc4c[nH]c5ccccc45)NC(=O)[C@@H]4CCCN4C(=O)CNC(=O)[C@H](CC(N)=O)NC(=O)[C@@H](NC(=O)CNC(=O)[C@H](Cc4ccccc4)NC(=O)CN)CSSC[C@H](NC(=O)[C@H](Cc4ccc(O)cc4)NC(=O)CNC(=O)CNC(=O)[C@H](CCCCN)NC(=O)[C@H](Cc4ccc(O)cc4)NC(=O)CNC(=O)[C@H](CCCCN)NC1=O)C(=O)N[C@@H](C)C(=O)N[C@@H](CCCCN)C(=O)NCC(=O)NCC(=O)N[C@@H](Cc1ccccc1)C(=O)N[C@@H](C(C)C)C(=O)N3)C(=O)N[C@@H](Cc1c[nH]cn1)C(=O)N[C@@H](CC(N)=O)C(=O)N[C@@H](Cc1c[nH]cn1)C(=O)N2 [plectasin]
Decrease of resistance by complementation [1]: 2 fold | ATP leakage (intracellular ATP concentration) (S. aureus): remained at the same level as the controls | Binding to DNA [2]: unable to demonstrate binding | Abundance of extracellular proteins (L. monocytogenes): no difference in the abundance of extracellular proteins | Spontaneous mutations leading to changes in sensitivity (S. aureus wild type): no spontaneous mutations | Toxicity [3]: very low toxicity
